# Source: patent US5874597A, “Certain aminosterol compounds and pharmaceutical compositions including these compounds” (priority 1995, dated 1999)
# “Also recorded” adds a separate entry of the source.
# Assays:
# [1] = test system: vitelline capillaries of chick embryo; test: chick embryo vitelline capillary regression assay; type: in vivo; conditions: in vivo
# Experimental: Using the chick embryo vitelline capillaries assay, compounds were tested for their ability to induce capillary regression. Each compound was applied in 0.1 ml of 15% Ficol 400 and PBS onto the embryo, and vascular regression was assessed after 60 minutes.
# The 3-day chick embryo consists of an embryonic disc from which numerous vessels emerge and return, forming a "figure 8"-shaped structure--the embryo in the center with vascular loops extending outward over both poles. […] Following a lag period of around 15 minutes, the constriction of continuity between capillary and secondary vessels, generally on the "venous" side, was observed. Continued pulsatile blood flow progressed, resulting in a "swelling" of the blind tube, followed by a pinching off of the remaining connection and formation of an enclosed vascular sac resembling a "blood island." This process progressed until only the largest vessels remained intact.
# [2] = test system: Xenopus tadpole (stage 59-60); test: Xenopus tadpole assay; type: in vivo, Xenopus laevis; conditions: 10 μg/ml; about 1 hour
# B16 melanoma = test: suppression of B16 melanoma growth in C57B mice; type: in vivo, mouse
# Experimental: The growth of B16 melanoma in C57B mice is dependent upon neovascularization.
# Using the growth of B16 melanoma cells in C57B mice, a recognized model for the evaluation of inhibitors of angiogenesis on the growth of cancers, the effects of subcutaneous, intraperitoneal and oral administration of squalamine were evaluated.
# Based on the idea that tumor growth involves both the clonal expansion of a malignant cell along with the development of a supporting vascular supply, a combination of compound 1436 with squalamine was tested to determine whether it would achieve a synergistic effect on solid tumor growth. This concept was evaluated in the B16 melanoma model.
# Animals were implanted with B16 melanoma followed by treatment with compound 1436 or 1256 administered in a combined schedule or separately. […] Thus, a combination of these two compounds achieves a therapeutic benefit in tumors dependent on neovascularization that may prevent metastatic spread.
# NHE = test: direct inhibition of NHE
# Source text: Moreover, other aminosterols have shown anti-angiogenic activity. Compounds were subjected to a various assays, including the chick embryo capillary regression assay, the tadpole assay, the assay for inhibition of endothelial cord formation, and the assay for direct inhibition of NHE, as described above, to determine their utilities. As evident from the above data, correlation among the results from the chick, tadpole and in vitro inhibition of endothelial cell cord formation assays is excellent.
# [3] = test system: Human coronary artery smooth muscle cells; test: proliferation of human coronary artery smooth muscle in vitro; type: cell-based; conditions: FIG. 15
# Source text: As set forth in Table 7 below, all malignant tumors evaluated in tissue culture, endothelial cells and vascular smooth muscle cells were sensitive to inhibition. Thus, compound 1436 has application in the control of growth factor dependent proliferation of many types of tissue.
# Aminosterols of the invention may also have utility in inhibiting the growth factor mediated proliferation of smooth muscle within the artery. Following coronary angioplasty, reocclusion commonly occurs, secondary to reparative proliferation of the vascular smooth muscle within the wall of the surgically manipulated blood vessel. This process generally takes place over the course of 7-10 days. To evaluate whether an agent could prevent the growth factor mediated proliferation of smooth muscle within the artery, compound 1436 was evaluated in vitro for its effect on the proliferation of human coronary artery smooth muscle. Results for compound 1436 are shown in FIG. 13, and those for squalamine are shown in FIG. 14, with FIG. 15 being a composite logarithmic plot.
# [4] = test system: L1210 lymphoblastic leukemia; test: mouse L1210 leukemia model, survival; type: in vivo; conditions: highest dose, 10 mg/kg every 3 days i.p.
# [5] = fasting blood glucose in mice; type: in vivo, mouse; conditions: intravenous; vs. Group 1
# Experimental: To study the effect of steroid administrator or the NHE responsible for secretion of insulin, several of the aminosterols from shark liver were administered to fasting mice. Male CD-1 mice were assigned to one of four treatment groups. Whole blood glucose was tested using glucometer (Lifescan Glucometer II and One Touch test strips). Statistical analysis was via one-way analysis of variance (ANOVA) followed by subsequent Bonferonni's t-test.
# [6] = growth and weight gain of C57B mice; type: in vivo, mouse; conditions: 10 mg/kg QTD i.p.; 6 doses, about 1 month
# Experimental: Animals were dosed QTD (i.p.) starting on Day 1. […] Animals receiving 5 mg/kg QTD experienced about a 50% reduction in growth, compared to untreated controls, while animals receiving 1 mg/kg QTD were affected by about 10%. […] They appeared very much like hypophysectamized animals might appear.
# [7] = arterial resistance in the rat after i.v. administration; type: in vivo
# Experimental: A 200-g rat was catheterized in the right carotid artery, and the compound was introduced over a ten-second period to a total dosage of 5 mg/kg. Within 30 seconds, the mean arterial pressure had fallen from about 100 mm Hg to about 70 mm Hg, with a marked reduction in pulse pressure from about 40 mm to about 10 mm. […] If cardiac output was basically unaffected, reduction in blood pressure would have resulted principally from a reduction in system resistance.
# At that time, 40 μg of noradrenaline was introduced.
# rabbit NHE3 = rabbit NHE3 (Oryctolagus cuniculus, UniProt P26432); test: inhibition of rabbit NHE3 in transfected PS120 fibroblasts (internal pH, BCECF-AM)
# Experimental: Internal pH was measured either following acid loading or in the absence of an acid-loading challenge, with the results shown in FIGS. 1A and 1B.
# Specifically, PS120 fibroblasts transfected with rabbit NHE3 were grown in supplemented Dulbecco's-modified Eagle's medium as described by Levine et al., J. Biol. Chem. 268, 1993, 25527-25535. […] For cells not acid-preloaded, the actual internal pH value was monitored as a function of time following addition of squalamine, with the results depicted in FIG. 1B.
# PS120 fibroblasts transfected with rabbit NHE3 were grown and acid preloaded by exposure to 40 mM NH4 Cl as described above in conjunction with FIGS. 1A and 1B. Internal cellular pH changes expressed as the rate of pH recovery as a function of restored extracellular sodium ion concentration following exposure to 10 μg/ml of the compound were assayed with the fluorescent dye BCECF-AM as described above.
# [8] = test system: human microvascular cells; test: inhibition of endothelial cell cord formation in vitro; type: cell-based; conditions: at cord-inhibiting concentrations
# Source text: Endothelial cells have the capacity in vitro to form tubular aggregates resembling capillaries in various early stages of formation. This conversion occurs under relatively specific conditions, in which essential growth factors along with an effective substratum are provided. It has been shown that both the interaction of growth factors with the endothelial cell and its attachment to a substratum activate the NHE. The activation of this exchanger is believed to be required for subsequent morphologic transformation of the endothelial cell into a multicellular tubular structure.
# To assess the effect of compounds on the cord-like structures formed by human microvascular cells when plated in the presence of VEGF (Vascular Endothelial Growth Factor) and basic fibroblast growth factor on a collagen matrix, a standard cord formation assay was used.
# [9] = test system: human umbilical venous endothelial cells; test: LPS/TNF-α-induced neutrophil adherence to human umbilical venous endothelial cells; type: cell-based; conditions: three different subjects; LPS or TNF-α activated
# Source text: Methods 109, 1988, 175-184.
# [10] = test system: chorioallantoic membrane capillaries; test: chorioallantoic membrane (CAM) model, inhibition of capillary growth; type: in vivo, chick; conditions: for Percentage positive, Assay 1 / Percentage positive, Assay 2 / Percentage positive, Mean: 3-Day Embryo
# Source text: The growing capillaries within the chorioallantoic membrane model (CAM model) have been used as a system in which to evaluate the effect of agents on their potential to inhibit new vessel growth. Neovascularization occurs most aggressively over the first week of embryonic development. Thereafter capillary growth is characterized by principally "elongation" rather than "de novo" formation.
# In the standard assay, agents are applied locally to a region of the embryo over which neovascularization will occur. Agents are assessed by their ability to inhibit this process, as evaluated by visual examination about 7 days after application. […] The assay utilized is described in detail in Auerbach et al., Pharm. Ther. 51, 1991, 1-11.
# human melanoma 1205Lu = test: suppression of human melanoma 1205Lu in RAG-1 mice; type: in vivo; conditions: 10, 20, 40 mg/kg/d
# Source text: As apparent from FIG. 5, melanoma 1205Lu develops aggressively in RAG-1 mice after implantation.
# [11] = test system: human foreskin fibroblasts; test: growth inhibition of human fibroblasts; conditions: 10 μg/ml
# [12] = test system: human epithelial cell line MCF 10A; test: growth inhibition of human epithelial cells; conditions: 10 μg/ml
# [13] = 20 μg, * = some vascular irritation noted
# [14] = 40 μg, * = some vascular irritation noted
# Chain of rabbit NHE3 (P26432 30-832): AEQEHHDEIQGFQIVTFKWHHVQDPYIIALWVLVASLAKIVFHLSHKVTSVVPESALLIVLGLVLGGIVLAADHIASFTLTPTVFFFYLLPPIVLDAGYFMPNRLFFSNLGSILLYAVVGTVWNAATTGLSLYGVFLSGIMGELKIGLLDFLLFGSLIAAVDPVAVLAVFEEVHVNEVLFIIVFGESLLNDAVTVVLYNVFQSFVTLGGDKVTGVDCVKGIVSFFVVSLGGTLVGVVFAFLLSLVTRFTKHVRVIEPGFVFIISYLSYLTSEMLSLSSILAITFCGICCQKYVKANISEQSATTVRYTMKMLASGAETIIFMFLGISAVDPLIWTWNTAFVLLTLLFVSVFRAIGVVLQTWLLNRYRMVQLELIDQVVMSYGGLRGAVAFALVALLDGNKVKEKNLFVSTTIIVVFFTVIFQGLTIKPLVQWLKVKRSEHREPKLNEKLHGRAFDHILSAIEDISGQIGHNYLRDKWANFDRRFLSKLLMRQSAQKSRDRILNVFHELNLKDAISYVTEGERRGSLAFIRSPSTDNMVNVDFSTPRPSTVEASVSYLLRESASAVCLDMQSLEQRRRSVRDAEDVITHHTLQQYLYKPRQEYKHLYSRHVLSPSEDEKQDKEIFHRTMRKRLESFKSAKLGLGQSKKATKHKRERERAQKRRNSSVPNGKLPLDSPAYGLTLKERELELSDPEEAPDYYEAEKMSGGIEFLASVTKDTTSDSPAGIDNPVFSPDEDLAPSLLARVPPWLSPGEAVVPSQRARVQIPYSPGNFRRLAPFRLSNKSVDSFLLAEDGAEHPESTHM
structure (smiles),measurement,setting,value
C[C@H](CCC(=O)O)[C@H]1CC[C@H]2[C@@H]3CC[C@H]4C[C@@H](NCCCNCCCCN)CC[C@]4(C)[C@H]3CC[C@]12C [Compound 319],effect on vitelline capillaries / chick embryo,[1],especially active
same,tadpole response,[2],common vascular occlusive effect
same,control of B16 melanoma,"B16 melanoma; compound 319 subcutaneous, C57B mice, FIG. 6",almost comparable to squalamine
same,potency as an NHE inhibitor,NHE,superior to squalamine
CC(C)[C@@H](CC[C@@H](C)[C@H]1CC[C@H]2[C@@H]3[C@H](O)C[C@H]4C[C@@H](NCCCNCCCCNCCCN)CC[C@]4(C)[C@H]3CC[C@]12C)OS(=O)(=O)O [Compound 1436],effect on vitelline capillaries / chick embryo,[1],about the same potency as squalamine
same,tadpole response,[2],"common vascular occlusive effect; also recorded: Gradual reduction in overall activity; also recorded: Heart beat remained strong, suggesting nervous system depression; also recorded: Melanocytes over head and tail began to swell; also recorded: dramatic disruption of melanocytes over its head, trunk, and tail; also recorded: No effects are observed on epithelial cell integrity, vascular flow, erythrocyte volume, tissue integrity, muscle fiber striation, or GI tract activity"
same,impact on tumor volume,B16 melanoma; compound 1436 10 mg/kg/every 3 days alone,no significant impact on tumor volume
same,suppression of growth of human coronary artery smooth muscle,[3],suppress in vitro the growth of human coronary artery smooth muscle
same,prolongation of life,[4],significant prolongation of life
same,fasting blood glucose effect,[5],caused hyperglycemia in mice
same,growth inhibition in mice,[6],growth was almost completely inhibited
same,reversibility of effect,[7]; 40 μg noradrenaline,readily reversible
same,persistence of effect,[7]; followed for 30 minutes,without significant change
same,inhibition of rabbit NHE3,"rabbit NHE3; 10 μg/ml, acid-preloaded 40 mM NH4Cl",inhibit rabbit NHE3
CC(C)[C@@H](CC[C@@H](C)[C@H]1CC[C@H]2[C@@H]3[C@H](O)C[C@H]4C[C@@H](NCCCNCCCCN)CC[C@]4(C)[C@H]3CC[C@]12C)OS(=O)(=O)O [squalamine],effect on cell viability or proliferation in cord assay,[8],does not appear to profoundly affect cell viability or proliferation
same,inhibition of neutrophil adherence,[9],no inhibition
same,"Percentage positive, Assay 1",[10]; 0.65 μg,28%
same,"Percentage positive, Assay 1",[10]; 1.25 μg,18%
same,"Percentage positive, Assay 2",[10]; 1.25 μg,18%
same,"Percentage positive, Mean",[10]; 1.25 μg,18%
same,"Percentage positive, Assay 1",[10]; 2.5 μg,35%
same,"Percentage positive, Assay 2",[10]; 2.5 μg,18%
same,"Percentage positive, Mean",[10]; 2.5 μg,27%
same,"Percentage positive, Assay 1",[10]; 5.0 μg,91%
same,"Percentage positive, Assay 2",[10]; 5.0 μg,57%
same,"Percentage positive, Mean",[10]; 5.0 μg,74%
same,"Percentage positive, Mean",[10]; 20 μg,55%
same,"Percentage positive, Assay 1",[10]; [13],52* %
same,"Percentage positive, Assay 2",[10]; [13],58* %
same,"Percentage positive, Mean",[10]; 40 μg,32%
same,"Percentage positive, Assay 1",[10]; [14],50* %
same,"Percentage positive, Assay 2",[10]; [14],13* %
same,"positive, Assay 1 (count)","[10]; 13-Day Embryo, 5.0 μg",0/26
same,inhibitory effect on older CAM,"[10]; 13-day old chick, ten times 0.65 μg",no inhibitory effect
same,effect on vitelline capillaries / chick embryo,[1],disrupt vitelline capillaries in 3- to 5-day chick embryos; also recorded: No hemorrhage was seen; also recorded: absence of hemolysis; also recorded: especially active
same,tadpole response,[2],blood flow through the capillaries of the tail shut down; also recorded: unaltered blood flow through the fine capillaries of the hands and feet; also recorded: common vascular occlusive effect; also recorded: Vascular occlusion in fine capillaries of tail; also recorded: No effect on vascular flow through hands or feet
same,impact on tumor volume,B16 melanoma; squalamine 5 mg/kg/day alone,no significant impact on tumor volume
same,suppression of B16 tumor volume,"B16 melanoma; squalamine s.c., i.p. or oral, C57B mice",dose-dependent suppression of tumor volume
same,body weight and hematologic parameters,B16 melanoma; squalamine-treated mice,no significant depression
same,suppression of growth of melanoma 1205Lu,human melanoma 1205Lu,clear suppression of tumor growth in a dose-dependent fashion; also recorded: reversible
same,suppression of growth of human coronary artery smooth muscle,[3],suppress in vitro the growth of human coronary artery smooth muscle
same,growth of fibroblast line,[11],no effect
same,growth of epithelial line,[12],no effect
same,specificity NHE3 over NHE1,rabbit NHE3,specificity for NHE3 over NHE1
same,inhibition of NHE3 (Km and Vmax),"rabbit NHE3; 5 μg/ml, acid-preloaded 40 mM NH4Cl",inhibited NHE3 with respect to proton concentration at both Km and Vmax levels
same,resting pH of cells,"rabbit NHE3; 5 μg/ml, not acid-preloaded",the resting pH of these cells was also inhibited
